In US5202349A, “Substituted phenylacetylenes, pharmaceutical compositions containing these compounds and processes for the preparation of these compounds and compositions” (Gruenenthal GmbH, priority 1990, dated 1993):

Experiments:
cyclooxygenase = molecular target: T1, cyclooxygenase (Ovis aries, UniProt P05979); assay: Inhibition of cyclooxygenase in sheep seminal vesicle microsomes ([14C]-arachidonic acid, TLC); assay type: biochemical; details: pH 7.0, read-out: IC50 for inhibition of cyclooxygenase (B)
T1 construct: suspension of sheep seminal vesicle microsomes; from tissue; host or cells: sheep seminal vesicle microsomes
T1 sequence (P05979 25-600): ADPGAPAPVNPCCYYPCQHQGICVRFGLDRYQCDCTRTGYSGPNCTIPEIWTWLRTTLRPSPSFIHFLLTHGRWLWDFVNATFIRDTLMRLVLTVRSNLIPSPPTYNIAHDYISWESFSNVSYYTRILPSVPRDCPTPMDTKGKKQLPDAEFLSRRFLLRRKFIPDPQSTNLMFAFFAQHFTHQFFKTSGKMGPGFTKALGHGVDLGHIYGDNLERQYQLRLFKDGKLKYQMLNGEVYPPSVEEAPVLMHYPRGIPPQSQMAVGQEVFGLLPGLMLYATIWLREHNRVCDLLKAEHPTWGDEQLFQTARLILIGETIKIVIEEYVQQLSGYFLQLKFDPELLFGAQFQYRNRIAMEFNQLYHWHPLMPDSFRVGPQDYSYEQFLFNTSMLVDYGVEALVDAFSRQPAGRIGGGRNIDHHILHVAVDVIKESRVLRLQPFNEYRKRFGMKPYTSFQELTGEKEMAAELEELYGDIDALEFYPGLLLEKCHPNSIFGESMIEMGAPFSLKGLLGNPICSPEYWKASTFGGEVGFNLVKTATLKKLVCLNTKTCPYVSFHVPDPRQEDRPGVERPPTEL
Procedure: The effect of the test compounds on the activity of cyclooxygenase was tested using a suspension of sheep seminal vesicle microsomes in 50 mM potassium phosphate buffer of pH 7.0 which was incubated with the solvent only (as control) or with the test compound and [^14 C]-arachidonic acid. The "IC50 -values (B)" (i.e. the concentration of the test compound which causes an 50%-inhibition of the cyclooxygenase) were determined by thin layer chromatography and by means of a TLC-Linear-Analyzer.

[1] = tested on: ex vivo iLTB4-formation (5-lipoxygenase activity) in whole blood of rats; assay: Inhibition of ex vivo iLTB4-formation in rat whole blood after oral administration; design: species or system male rats (Wistar strain); details: Rattus norvegicus, 21.5 mg/kg oral, blood taken 1 hour later
Procedure: The bioavailability of the compounds of formula I after oral administration was characterized by means of an ex vivo biochemical assessment method described by Tateson et al. in Brit. Pharmacol., 94, 528 (1988).
Compounds of formula I were orally administered to male rats (Wistar strain). 1 hour later the rats were bled by heart puncture in letal CO2 -narcosis. The 5-lipoxygenase reaction was triggered by the addition of the calcium-ionophor A23187 to an end concentration of […] to aliquots of rat whole blood and subsequent incubation for 30 minutes at 37° C. in a water bath. At the end of the incubation the samples were centrifuged to collect the cell free plasma. The concentration of the immunoreactive LTB4 (iLTB4 ng/ml) in each plasma sample was determined by a LTB4 -radioimmunoassay (^3 H-LTB4 -RIA, Amersham) by means of a LTB4 -standard curve in diluted rat plasma. For calculation of the percent inhibition of ex vivo iLTB4 -formation in whole blood of rats treated with the compounds of formula I rats treated with appropiate vehicle solution were included in all experiments, aliquots of their blood were run in parallel and were processed in the same way as described. The mean iLTB4 -formation per ml plasma of these vehicle treated control rats served as 100 percent value of normal control 5-lipoxygenase activity. The percent inhibition of the ex vivo iLTB4 -formation after oral administration of compounds of formula I was calculated as follows: 100 minus 100 times the quotient of the mean iLTB4 concentration per ml plasma of the rats treated with compounds of formula I […] and the mean iLTB4 concentration per ml plasma of the control rats.

5-lipoxygenase = molecular target: T2, 5-lipoxygenase (Rattus norvegicus, UniProt P12527); assay: Inhibition of 5-lipoxygenase in rat basophilic leukemia cells ([14C]-arachidonic acid, TLC); assay type: cell-based; details: for IC50: rat basophilic leukemia cells, standardized to nordihydroguaiaretic acid; for Quotient (IC50 cyclooxygenase (B) / 5-lipoxygenase (A)): selectivity
T2 construct: endogenous in cells; host or cells: rat basophilic leukemia cells
T2 sequence (P12527 1-673): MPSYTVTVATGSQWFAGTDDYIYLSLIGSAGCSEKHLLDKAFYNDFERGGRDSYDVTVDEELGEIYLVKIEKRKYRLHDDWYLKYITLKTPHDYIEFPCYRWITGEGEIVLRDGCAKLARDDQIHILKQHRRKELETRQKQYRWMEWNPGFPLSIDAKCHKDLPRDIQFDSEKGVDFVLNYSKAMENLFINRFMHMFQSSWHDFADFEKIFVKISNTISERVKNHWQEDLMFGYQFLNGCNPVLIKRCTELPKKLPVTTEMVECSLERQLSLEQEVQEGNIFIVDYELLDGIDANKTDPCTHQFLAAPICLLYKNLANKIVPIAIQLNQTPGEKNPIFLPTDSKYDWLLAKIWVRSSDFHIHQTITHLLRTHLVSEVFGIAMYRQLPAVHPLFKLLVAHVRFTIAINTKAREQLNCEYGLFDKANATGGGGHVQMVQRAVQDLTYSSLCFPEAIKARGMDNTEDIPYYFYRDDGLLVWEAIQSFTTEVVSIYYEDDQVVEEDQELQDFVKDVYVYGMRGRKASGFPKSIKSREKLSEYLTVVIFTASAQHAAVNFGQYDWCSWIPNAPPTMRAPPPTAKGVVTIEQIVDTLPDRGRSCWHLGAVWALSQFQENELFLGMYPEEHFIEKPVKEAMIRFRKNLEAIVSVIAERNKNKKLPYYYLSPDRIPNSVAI
Procedure: To 1 ml each of this suspension there was added indomethacin (10 μM) and calcium chlorid (2 mM) and then the mixture was incubated in presence or absence of a test compound for 3 minutes and thereafter with 20 μM of [^14 C]-arachidonic acid and 20 μM of the calcium ionophore A 23 187 for 10 minutes. The reaction was stopped by adding 20 μl of glacial acetic acid and then the mixture was extracted with ethyl acetate to isolate the metabolites of arachidonic acid formed by the enzymatic action of 5-lipoxygenase. These were separated by thin layer chromatography using a solvent mixture known to be suitable for leukotriene analysis [c.f. Jakschik et al., Biochem. Biophys. Res. Commun. 102, 624 (1981)]. The distribution of the radioactivity to the different metabolites was measured using a TLC Linear Analyzer. By bringing into relationship the percentages of the amount of the products formed under the action of 5-lipoxygenase (5-HETE, isomers of LTB4) in the controls (tests performed in absence of test compounds) and in the presence of test compounds of formula I in different concentrations the "IC50 -value" (i.e. the concentration of the test compound which causes an 50%-inhibition of the 5-lipoxygenase) is determined. For standardization these values then were brought into relationship to the IC50 -values determined in the same manner for the standard compound nordihydroguaiaretic acid.

[2] = tested on: endotoxin/galactosamine-induced hepatitis, increase of liver specific enzymes in the serum; assay: Endotoxin/galactosamine-induced hepatitis in mice (septic shock model); assay type: in vivo; details: 10 mg/kg i.p. for each of five applications, 8 hours after endotoxin
Procedure: As a test model to evaluate the effects of test compounds in septic shock the endotoxin/galactosamine-induced hepatitis in mice has been used. […] The intraperitoneal application of 5-lipoxygenase inhibitors 30 minutes before, simultaneously with and 2, 4 and 6 hours after the application of endotoxin inhibitis the hepatitis-induced increase of the serum activities of these enzymes. On administration of compounds of the formula I in doses of 10 mg/kg for each of the five applications the following percentual inhibitions of the increase of the enzymes GPT and SDH were achieved (the increase of enzymatic activities in control animals was set at 100%): […]

IC50 (cyclooxygenase) | IC50 (5-lipoxygenase) | Quotient (IC50 cyclooxygenase (B) / 5-lipoxygenase (A)) (5-lipoxygenase) | Compound | inhibition in vivo at 21.5 mg/kg [1] | Inhibition of increase of GPT [2] | Inhibition of increase of SDH [2]
500000 nM | 410 nM | 1220 | NC(=O)N(O)Cc1ccc(C#Cc2ccsc2)cc1 [Example 16f, N-Hydroxy-N-[4-(thien-3-yl-ethynyl)-benzyl]-urea] | 97% | – | –
> 500000 nM | 260 nM | > 1923 | NC(=O)N(O)Cc1cccc(C#Cc2ccc(Cl)cc2)c1 [Example 10m, N-Hydroxy-N-[3-(4-chlorophenylethynyl)-benzyl]-urea] | – | – | –
500000 nM | 370 nM | 1351 | NC(=O)N(O)Cc1ccc(C#Cc2cccs2)cc1 [Example 16d, N-Hydroxy-N-[4-(thien-2-yl-ethynyl)-benzyl]-urea] | – | – | –
270000 nM | 320 nM | 844 | COc1ccccc1C#Cc1cccc(C(C)N(O)C(N)=O)c1 (stereo not drawn) [Example 10g, N-Hydroxy-N-{1-[3-(2-methoxy-phenylethynyl)-phenyl]-ethyl}-urea] | – | – | –
> 500000 nM | 270 nM | > 1852 | COc1cccc(C#Cc2cccc(C(C)N(O)C(N)=O)c2)c1 (stereo not drawn) [Example 10c, N-Hydroxy-N-{1-[3-(3-methoxy-phenylethynyl)-phenyl]-ethyl}-urea] | – | – | –
500000 nM | 290 nM | 1724 | CC(c1ccc(C#Cc2ccsc2)cc1)N(O)C(N)=O (stereo not drawn) [Example 16b, N-Hydroxy-N-{1-[4-(thien-3-yl-ethynyl)-phenyl]-ethyl}-urea] | 91% | – | –
> 500000 nM | 180 nM | > 2778 | COc1ccc(C#Cc2cccc(CN(O)C(N)=O)c2)cc1 [Example 10n, N-Hydroxy-N-[3-(4-methoxyphenylethynyl)-benzyl]-urea] | – | – | –
> 500000 nM | 690 nM | > 725 | COc1ccc(C#Cc2cccc(C(C)N(O)C(N)=O)c2)cc1OC (stereo not drawn) [Example 10b, N-Hydroxy-N-{1-[3-(3,4-dimethoxy-phenylethynyl)-phenyl]-ethyl}-urea] | 86% | – | –
500000 nM | 550 nM | 909 | CC(c1cccc(C#Cc2ccc(Cl)cc2)c1)N(O)C(N)=O (stereo not drawn) [Example 10d, N-Hydroxy-N-{1-[3-(4-chloro-phenylethynyl)-phenyl]-ethyl}-urea] | 99% | – | –

Second part, the compound before the results:

Compound | IC50 (cyclooxygenase) | IC50 (5-lipoxygenase) | Quotient (IC50 cyclooxygenase (B) / 5-lipoxygenase (A)) (5-lipoxygenase) | inhibition in vivo at 21.5 mg/kg [1] | Inhibition of increase of GPT [2] | Inhibition of increase of SDH [2]
NC(=O)N(O)Cc1cccc(C#Cc2cccc3ccccc23)c1 [Example 7, N-Hydroxy-N-[-3-(naphth-1-yl-ethynyl)-benzyl]-urea] | > 500000 nM | 650 nM | > 769 | 90% | – | –
COc1cccc(C#Cc2cccc(C(C)N(O)C(C)=O)c2)c1 (stereo not drawn) [Example 5c, N-{1-[3-(3-Methoxy-phenylethynyl)-phenyl]-ethyl}-acetohydroxamic acid] | > 500000 nM | 580 nM | > 862 | 88% | – | –
CC(c1cccc(C#Cc2ccc(C(F)(F)F)cc2)c1)N(O)C(N)=O (stereo not drawn) [Example 11, N-Hydroxy-N-{1-[3-(4-trifluoromethyl-phenylethynyl)-phenyl]-ethyl}-urea] | > 500000 nM | 670 nM | > 746 | 76% | – | –
CC(c1ccc(C#Cc2cccs2)cc1)N(O)C(N)=O (stereo not drawn) [Example 15, N-Hydroxy-N-{1-[4-(thien-2-yl-ethynyl)-phenyl]-ethyl}-urea] | 500000 nM | 410 nM | 1220 | 77% | – | –
CC(=O)N(O)C(C)c1cccc(C#Cc2ccc(Cl)cc2)c1 (stereo not drawn) [Example 12, N-{1-[3-(4-Chloro-phenylethynyl)-phenyl]-ethyl}-acetohydroxamic acid] | – | – | – | 87% | – | –
COc1ccc(C#Cc2cccc(C(C)N(O)C(C)=O)c2)cc1OC (stereo not drawn) [Example 5b, N-{1-[3-(3,4-Dimethoxy-phenylethynyl)-phenyl]-ethyl}-acetohydroxamic acid] | > 500000 nM | 280 nM | > 1786 | – | – | –
CC(=O)N(O)Cc1cccc(C#Cc2ccc(C(C)C)cc2)c1 [Example 5e, N-[3-(4-Isopropyl-phenylethynyl)-benzyl]-acetohydroxamic acid] | – | – | – | 82% | – | –
CC(C)c1ccc(C#Cc2cccc(CN(O)C(N)=O)c2)cc1 [Example 10e] | – | – | – | 81% | – | –
CC(=O)N(O)C(C)c1ccc(C#Cc2ccccc2)cc1 (stereo not drawn) [Example 2a, N-{1-[4-(Phenylethynyl)-phenyl]-ethyl}-acetohydroxamic acid] | – | – | – | 76% | – | –
COc1ccc(C#Cc2cccc(CN(O)C(C)=O)c2)cc1 [Example 4, N-[3-(4-Methoxy-phenylethynyl)-benzyl]-acetohydroxamic acid] | – | – | – | – | 87% | 81%
CC(c1cccc(C#Cc2ccc(F)cc2)c1)N(O)C(N)=O (stereo not drawn) [Example 8b, N-Hydroxy-N-{1-[3-(4-fluorophenylethynyl)-phenyl]-ethyl}-urea] | – | – | – | 99% | – | –
